Series [1] has as its target T1, Serine/threonine-protein kinase 3 (Homo sapiens, UniProt Q13188).
T1 sequence (Q13188 whole entry): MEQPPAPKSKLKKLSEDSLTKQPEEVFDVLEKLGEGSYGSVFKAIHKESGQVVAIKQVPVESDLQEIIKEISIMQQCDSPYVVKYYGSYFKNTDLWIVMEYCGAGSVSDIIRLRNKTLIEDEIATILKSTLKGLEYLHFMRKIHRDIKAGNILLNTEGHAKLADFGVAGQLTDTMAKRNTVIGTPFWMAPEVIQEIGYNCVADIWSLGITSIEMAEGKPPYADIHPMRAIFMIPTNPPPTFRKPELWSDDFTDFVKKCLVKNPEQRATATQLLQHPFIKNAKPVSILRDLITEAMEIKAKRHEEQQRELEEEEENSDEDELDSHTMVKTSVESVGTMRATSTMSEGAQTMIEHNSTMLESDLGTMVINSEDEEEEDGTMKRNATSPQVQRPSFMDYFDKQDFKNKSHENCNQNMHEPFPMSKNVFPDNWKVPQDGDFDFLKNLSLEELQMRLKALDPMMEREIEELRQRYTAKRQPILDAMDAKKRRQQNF

Series [2] is described as follows: Drug concentration in C57BL/6 mouse plasma at 20 mg/kg, ip measured after 30 mins by LC-MS/MS analysis. Format: ADME, organism-based.
For series [3], the target named is T2, Serine/threonine-protein kinase 4 (Homo sapiens, UniProt Q13043).
T2 sequence (Q13043 whole entry): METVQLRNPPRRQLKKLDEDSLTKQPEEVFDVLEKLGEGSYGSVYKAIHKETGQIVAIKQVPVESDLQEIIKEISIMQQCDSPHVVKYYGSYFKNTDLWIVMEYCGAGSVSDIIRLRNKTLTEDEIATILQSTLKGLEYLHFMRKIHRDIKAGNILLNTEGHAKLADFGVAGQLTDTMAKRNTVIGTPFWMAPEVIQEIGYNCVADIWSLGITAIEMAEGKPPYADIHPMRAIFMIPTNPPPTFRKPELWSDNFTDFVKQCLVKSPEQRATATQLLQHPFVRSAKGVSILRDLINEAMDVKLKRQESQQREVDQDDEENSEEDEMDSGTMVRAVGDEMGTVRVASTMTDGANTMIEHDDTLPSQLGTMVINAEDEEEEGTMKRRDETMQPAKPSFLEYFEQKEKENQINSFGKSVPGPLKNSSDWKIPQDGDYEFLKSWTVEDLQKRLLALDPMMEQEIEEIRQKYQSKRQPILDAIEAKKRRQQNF

In series [4] the target is T1, Serine/threonine-protein kinase 3. The source holds these as a separate data set.
Description: Displacement of K5 tracer from full length C-terminal NanoLuc fused human STK3 expressed in HEK293T cells incubated for 2 hrs by NanoBRET assay
The target of series [5] is T2, Serine/threonine-protein kinase 4. The source holds these as a separate data set.
Description: Displacement of K5 tracer from full length C-terminal NanoLuc fused human STK4 expressed in HEK293T cells incubated for 2 hrs by NanoBRET assay
Series [6] deals with Leucine-rich repeat serine/threonine-protein kinase 2 (Homo sapiens, UniProt Q5S007). The series can be described thus: Displacement of K5 tracer from full length C-terminal NanoLuc fused human LRRK2 expressed in HEK293T cells incubated for 2 hrs by NanoBRET assay. The class given is cell-based. On the technique in general: BRET reads energy transfer from a luciferase to a nearby fluorophore.
Chain of Leucine-rich repeat serine/threonine-protein kinase 2 (Q5S007 whole entry, the tested form may be a part): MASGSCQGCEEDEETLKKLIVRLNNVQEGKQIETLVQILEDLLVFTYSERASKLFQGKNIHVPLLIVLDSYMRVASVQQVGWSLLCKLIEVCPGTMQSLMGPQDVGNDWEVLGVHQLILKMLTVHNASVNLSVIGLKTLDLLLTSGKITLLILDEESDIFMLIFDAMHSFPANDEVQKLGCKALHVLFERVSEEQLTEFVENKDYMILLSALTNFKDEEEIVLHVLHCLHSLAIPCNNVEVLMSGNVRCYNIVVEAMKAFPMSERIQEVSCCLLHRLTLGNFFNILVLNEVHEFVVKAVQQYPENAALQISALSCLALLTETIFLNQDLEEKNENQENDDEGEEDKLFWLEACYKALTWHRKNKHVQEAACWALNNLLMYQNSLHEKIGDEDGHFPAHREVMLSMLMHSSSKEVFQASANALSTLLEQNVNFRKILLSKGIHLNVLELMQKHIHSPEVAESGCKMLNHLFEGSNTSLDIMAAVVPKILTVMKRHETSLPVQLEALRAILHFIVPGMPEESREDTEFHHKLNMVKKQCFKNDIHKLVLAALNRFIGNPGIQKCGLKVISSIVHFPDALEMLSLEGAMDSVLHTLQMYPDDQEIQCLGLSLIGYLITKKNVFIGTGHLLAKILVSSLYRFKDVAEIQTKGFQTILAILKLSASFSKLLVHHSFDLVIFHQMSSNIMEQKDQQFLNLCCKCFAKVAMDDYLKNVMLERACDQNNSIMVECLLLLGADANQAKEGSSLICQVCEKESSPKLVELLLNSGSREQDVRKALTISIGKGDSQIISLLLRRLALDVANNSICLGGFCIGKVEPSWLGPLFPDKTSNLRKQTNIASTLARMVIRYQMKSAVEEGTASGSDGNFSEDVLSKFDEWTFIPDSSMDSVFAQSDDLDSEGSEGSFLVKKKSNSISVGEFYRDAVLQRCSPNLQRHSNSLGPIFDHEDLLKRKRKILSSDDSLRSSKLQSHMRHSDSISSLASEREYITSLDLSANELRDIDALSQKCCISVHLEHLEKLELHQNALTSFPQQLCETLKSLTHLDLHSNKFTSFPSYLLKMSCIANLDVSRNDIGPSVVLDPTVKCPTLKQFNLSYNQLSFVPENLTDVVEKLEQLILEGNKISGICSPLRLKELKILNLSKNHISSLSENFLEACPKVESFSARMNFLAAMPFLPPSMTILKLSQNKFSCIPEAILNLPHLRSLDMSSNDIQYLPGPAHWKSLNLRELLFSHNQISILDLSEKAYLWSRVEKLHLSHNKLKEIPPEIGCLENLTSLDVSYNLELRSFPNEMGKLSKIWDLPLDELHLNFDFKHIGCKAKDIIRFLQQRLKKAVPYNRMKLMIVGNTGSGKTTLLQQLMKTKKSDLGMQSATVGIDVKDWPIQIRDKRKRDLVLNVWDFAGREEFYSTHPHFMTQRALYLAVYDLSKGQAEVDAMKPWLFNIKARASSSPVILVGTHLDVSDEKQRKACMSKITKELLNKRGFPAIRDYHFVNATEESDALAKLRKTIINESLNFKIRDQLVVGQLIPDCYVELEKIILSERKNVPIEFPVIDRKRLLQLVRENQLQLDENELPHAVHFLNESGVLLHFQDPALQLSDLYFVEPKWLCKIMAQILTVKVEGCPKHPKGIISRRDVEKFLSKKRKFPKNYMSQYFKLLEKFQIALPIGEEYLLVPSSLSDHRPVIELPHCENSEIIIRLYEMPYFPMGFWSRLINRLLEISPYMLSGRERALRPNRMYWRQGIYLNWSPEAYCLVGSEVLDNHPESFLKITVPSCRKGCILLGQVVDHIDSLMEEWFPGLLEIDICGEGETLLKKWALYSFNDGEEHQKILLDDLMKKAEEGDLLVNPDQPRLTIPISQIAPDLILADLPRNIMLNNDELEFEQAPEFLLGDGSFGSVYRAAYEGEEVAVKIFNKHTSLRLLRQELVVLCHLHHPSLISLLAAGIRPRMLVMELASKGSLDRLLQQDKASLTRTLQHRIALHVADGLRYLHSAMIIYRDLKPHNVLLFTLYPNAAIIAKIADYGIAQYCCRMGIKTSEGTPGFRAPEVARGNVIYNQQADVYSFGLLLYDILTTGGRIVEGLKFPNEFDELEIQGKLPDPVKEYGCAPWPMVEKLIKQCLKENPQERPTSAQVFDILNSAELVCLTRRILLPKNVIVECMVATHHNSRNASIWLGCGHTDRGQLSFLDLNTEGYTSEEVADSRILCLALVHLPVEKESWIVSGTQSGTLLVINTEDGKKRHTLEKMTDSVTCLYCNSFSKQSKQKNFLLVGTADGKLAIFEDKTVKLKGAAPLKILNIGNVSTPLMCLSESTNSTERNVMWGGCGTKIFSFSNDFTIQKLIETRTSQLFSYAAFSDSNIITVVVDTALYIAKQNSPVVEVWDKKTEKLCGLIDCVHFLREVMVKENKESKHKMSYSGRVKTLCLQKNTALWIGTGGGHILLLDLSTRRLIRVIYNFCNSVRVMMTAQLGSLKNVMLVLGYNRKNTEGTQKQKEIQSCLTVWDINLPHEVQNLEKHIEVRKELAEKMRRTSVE

The target of series [7] is T3, Serine/threonine-protein kinase 3 (Homo sapiens) (UniProt Q13188).
T3 sequence (whole entry): T1 sequence (Q13188 whole entry)
Nature of the series: Inhibition of STK3 in HEK293 cells assessed as increase in YAP/TAZ-TEAD activity at 10 uM incubated for 48 hrs by Dual-Glo luciferase assay. The class given is cell-based.

Series [8] addresses T3, Serine/threonine-protein kinase 3 (Homo sapiens). Nature of the series: Inhibition of recombinant N-terminal His6-tagged human STK3 (18 to 311 residues) expressed in Escherichia coli assessed as melting temperature at 20 uM by thermal shift assay.
Series [9] has as its target T2, Serine/threonine-protein kinase 4. This is another data set of the same source.
Series [10] has the same target. The series can be described thus: Binding affinity to recombinant N-terminal His6-tagged human STK4 (43 to 431 residues) expressed in Escherichia coli assessed as dissociation constant by isothermal titration calorimetry. Background: In ITC the heat of successive injections is recorded.
Series [11] has as its target T4, Serine/threonine-protein kinase 4 (Homo sapiens) (UniProt Q13043).
T4 sequence (whole entry): T2 sequence (Q13043 whole entry)
The settings on record: dose 20.0 µM.
Description: Inhibition of recombinant N-terminal His6-tagged human STK4 (43 to 431 residues) expressed in Escherichia coli assessed as melting temperature at 20 uM by thermal shift assay (Rvb = 55 degreeC)

Series [12] addresses T1, Serine/threonine-protein kinase 3. The series can be described thus: Binding affinity to recombinant N-terminal His6-tagged human STK3 (18 to 311 residues) expressed in Escherichia coli assessed as dissociation constant by isothermal titration calorimetry.
Substrate in series [13]: Clc1cccc(-c2c[nH]c3ncnc(N4CCOCC4)c23)c1
Description: Inhibition of recombinant N-terminal His6-tagged human STK4 (43 to 431 residues) expressed in Escherichia coli using CSox-peptide as substrate preincubated for 15 mins followed by substrate addition measured every 2 mins upto 150 mins by microplate reader
The settings on record: Homo sapiens; time 165.0 min.

As usually defined, the IC50 is the concentration needed to halve the response being measured. High values mean weaker potency, low ones greater potency. As usually defined, the ΔTm is the shift of the melting midpoint relative to a reference. Usually Ki stands for the equilibrium dissociation constant of an inhibitor or competing ligand from its target. A low value points to tighter binding. Usually Kd stands for the free concentration of one partner at which half of the binding sites on the other are occupied at equilibrium, for simple one-to-one binding. As a reminder, the Km is the substrate concentration at which the rate is half of its maximum.

Calls of active or inactive are those of the source. The calls are words filed in the database; no cut-off is given here.

Molecule `CCN(CCO)c1ncnc2[nH]cc(-c3cccc(Cl)c3)c12` came in with an IC50 in series [1] of 226 nM. That is a sub-micromolar value.

For the molecule `CC(CO)CN(C)c1ncnc2[nH]cc(-c3cccc(Cl)c3)c12` (stereo not given), the concentration at 0.5 h in series [2] was above 1400 nM. Moreover, the IC50 in series [3] stood at 38 nM; in series [4], 289 nM; in series [1], 58 nM; in series [5], 444 nM; in series [6], 7140 nM.

In [1], `c1nc(N2CCOCC2)c2c(-c3ccoc3)c[nH]c2n1` yielded an IC50 of 986 nM.

On to `N#Cc1cccc(-c2c[nH]c3ncnc(N4CCOCC4)c23)c1`, for which the IC50 in series [4] is 197 nM; in series [6], 84 nM.

In series [1], `COc1cccc(-c2c[nH]c3ncnc(N4CCOCC4)c23)c1` showed an IC50 of 766 nM. This lies in the sub-micromolar range.

Regarding `Cc1ccc(-c2c[nH]c3ncnc(N4CCOCC4)c23)cc1`, the inhibition entry in series [7] is “inactive”. In series [1], this molecule returned an IC50 of 2020 nM.

Turning to `Fc1ccccc1-c1c[nH]c2ncnc(N3CCOCC3)c12`, the IC50 in series [1] amounted to 558 nM. This lies in the sub-micromolar range.

Take `c1csc(-c2c[nH]c3ncnc(N4CCOCC4)c23)c1`: the half-inhibitory concentration (IC50) in series [1] is 267 nM.

For the molecule `c1coc(-c2c[nH]c3ncnc(N4CCOCC4)c23)c1`, the IC50 in series [1] is 487 nM.

In series [2], `Fc1cccc(-c2c[nH]c3ncnc(N4CCOCC4)c23)c1` registered a concentration at 0.5 h above 1400 nM. Moreover, the IC50 came out at 373 nM in [4], 191 nM in series [1] and 246 nM in series [6]. The inhibition entry in [7] is “Active”. The thermal shift (ΔTm) in series [8] is above 5.2 °C.

`Fc1ccc(-c2c[nH]c3ncnc(N4CCOCC4)c23)cc1` showed a concentration at 0.5 h in [2] above 1400 nM. Moreover, the IC50 in series [1] was determined as 766 nM.

Molecule `CN(CCO)c1ncnc2[nH]cc(-c3cccc(Cl)c3)c12` had a concentration at 0.5 h in series [2] above 1400 nM. Besides, the IC50 in [3] is 79 nM; in series [4], 631 nM; in series [1] it was 117 nM; in [5] it was 406 nM; in [6] it was 1520 nM.

As for `c1ccc(-c2c[nH]c3ncnc(N4CCOCC4)c23)cc1`, the results for the IC50 in series [3] and in series [1] were 183 nM and 197 nM, respectively.

For the molecule `Cc1cccc(-c2c[nH]c3ncnc(N4CCOCC4)c23)c1`, in series [2], the concentration at 0.5 h is above 1400 nM. Moreover, the IC50 turned out to be 434 nM in series [4], 121 nM in [1] and 127 nM in series [6].

In series [1], `Clc1cccc(-c2coc3ncnc(N4CCOCC4)c23)c1` gave an IC50 above 10000 nM.

Take `Clc1cccc(-c2n[nH]c3ncnc(N4CCOCC4)c23)c1`: the 50% inhibitory concentration (IC50) amounted to 1610 nM in series [3] and 4800 nM in series [1].

As to `OCCCNc1ncnc2[nH]cc(-c3cccc(Cl)c3)c12`, in [2], the concentration at 0.5 h is above 1400 nM. Further, the IC50 turned out to be 668 nM in series [4], 173 nM in series [1] and 2490 nM in [6].

As to `Clc1cccc(-c2csc3ncnc(N4CCOCC4)c23)c1`, the IC50 in series [1] is above 10000 nM.

For `Clc1cccc(-c2c[nH]c3ncnc(N4CCOCC4)c23)c1`, in [9], affinity was put at a Ki of 50 nM. Further, the Kd in series [10] is 147 nM. The concentration at 0.5 h in [2] is above 1400 nM. For the same molecule, the IC50 in series [3] was 35 nM; in [5] it was 320 nM; in series [6] it was 264 nM. In addition, the Tm in series [11] came to 63.8 °C.

For the molecule `Clc1cccc(-c2c[nH]c3ncnc(NCC4CC4)c23)c1`, in [1], 213 nM corresponded to half-maximal inhibition (IC50).

In the case of `Cc1ccccc1-c1c[nH]c2ncnc(N3CCOCC3)c12`, the IC50 in series [3] came to 2400 nM; in [1], 6900 nM. Also, in series [7], the inhibition result is “inactive”.

With `CN(C)c1ncnc2[nH]cc(-c3cccc(Cl)c3)c12`, the half-maximal inhibitory concentration (IC50) in [1] was determined as 349 nM.

With `Clc1cccc(-c2c[nH]c3nccc(N4CCOCC4)c23)c1`, the Kd in series [10] stood at 158 nM; in series [12], 48 nM. In series [2], this molecule gave a concentration at 0.5 h above 1400 nM. Moreover, the IC50 in series [3] was determined as 66 nM; in series [4], 373 nM; in [1] it was 119 nM; in [5], 192 nM; in series [6] it was 121 nM. For the same molecule, the Tm in series [11] was found to be 63.6 °C. In [7], the inhibition result is “Active”.

`CC1(N)CCN(c2ncnc3[nH]cc(-c4cccc(Cl)c4)c23)CC1` returned a concentration at 0.5 h in series [2] above 1400 nM. Moreover, in series [1], the IC50 came out at 278 nM.

On to `CC1(O)CCN(c2ncnc3[nH]cc(-c4cccc(Cl)c4)c23)CC1`, for which, in series [1], the IC50 is 189 nM. In other words, the sub-micromolar range.

On to `Clc1cccc(-c2c[nH]c3ncnc(N4CCCCC4)c23)c1`, for which the concentration at 0.5 h in series [2] was above 1400 nM. Also, the values for the IC50 in [4], in series [1] and in [6] were 1100 nM, 167 nM and 1140 nM, respectively. Besides, in [8], the ΔTm is above 5.2 °C.

`CNC1CCN(c2ncnc3[nH]cc(-c4cccc(Cl)c4)c23)CC1` returned a concentration at 0.5 h in [2] above 1400 nM. Moreover, the IC50 in series [6] was 3540 nM.

`CN1C(=O)c2sccc2N(C)c2nc(Nc3ccc(S(N)(=O)=O)cc3)ncc21`: the IC50 in series [5] was 1040 nM.

Consider `Clc1cccc(-c2c[nH]c3ccnc(N4CCOCC4)c23)c1`, for which the IC50 in [1] was above 10000 nM.

For `COc1ccccc1-c1c[nH]c2ncnc(N3CCOCC3)c12`, the IC50 in [1] was 230 nM.

B1: Serine/threonine-protein kinase 4 (Homo sapiens), Q13043 (protein)
chain: T2 sequence (Q13043 whole entry)
With B1, in [13], the Michaelis constant (Km) turned out to be 140 µM.

The values are drawn from ChEMBL document CHEMBL5042489, “Inhibitors of the Hippo Pathway Kinases STK3/MST2 and STK4/MST1 Have Utility for the Treatment of Acute Myeloid Leukemia” (J Med Chem, 2022).
